According to US12303541B2, “Erodium crassifolium L'Her plant extracts and uses thereof” (priority 2015, dated 2025):

System: IL-8
Assay: IL-8 levels in TNF-α treated HaCaT cells (EE, fractions, pure compounds)
Type: cell-based, human
Conditions: for reduction of IL-8 levels by individual pure compounds: tested separately at the concentration present in comb-1, HaCaT
Experimental: After incubation, cell excitation was performed with recombinant human tumor necrosis factor-α (TNF-α, PeproTech, 300-01A, USA). Cultures in each well were treated with a final concentration of 50 ng/mL of TNFα and 50 μL plant extract. Three different controls were included in all experiments: (a) non-treated cells, with neither TNF-α nor plant extracts, (b) cells treated with TNF-α alone, (c) cells treated with TNF-α and the solvent (7% ethanol). The supernatant was collected, and the level of IL-8 was measured 16 h post-treatment using the commercial Human CXCL8/IL-8 DuoSet ELISA kit (R&D Systems, DY208-05, USA) according to the manufacturer's protocol. IL-8 is a common biomarker for inflammatory skin diseases. 16 h of TNF-α exposure induce IL-8 levels. Dexamethasone (Sigma-Aldrich, D4902, USA) was used as a positive control.

Compound | IL-8 levels (17.6 μg/mL) | IL-8 reduction activity (all examined concentrations of pure standard) | reduction of IL-8 levels by individual pure compounds | IL-8, % of TNF-α activated cells (100 μM, HaCaT) | level of IL-8 (100 μM, TNF-α 50 ng/mL, 16 h, HaCaT)
Oc1cc(O)c2c(c1)O[C@H](c1cc(O)c(O)c(O)c1)[C@H](O)C2 [EGC, (−)-Epigallocatechin] | led to increased IL-8 levels | None of the examined concentrations of pure standard EGC showed any significant IL-8 reduction activity | inactive for reduction of IL-8 levels |  | 
C[C@@H]1C[C@H]2[C@@H]3CCC4=CC(=O)C=C[C@]4(C)[C@@]3(F)[C@@H](O)C[C@]2(C)[C@@]1(O)C(=O)CO [dexamethasone, Dexamethasone] |  |  |  | 59.4% | 104.0 ± 3.0 pg/mL
O=C(O)c1cc(O)c(O)c(O)c1 [gallic acid] |  |  | inactive for reduction of IL-8 levels |  | 
catechin |  |  | inactive for reduction of IL-8 levels |  | 
